Source: patent US11524948B2, “Prodrugs of alpha-ketoglutarate, alpha-ketobutyrate, alpha-ketoisovalerate, and alpha-ketoisohexanoate, and uses thereof” (The Regents of the University of California, priority 2018, dated 2022)
“Also recorded” adds a separate entry of the source.

Legend:
AMPK signaling pathway = assay: Western blot of AMPK signaling in H9C2 rat cardiomyocytes; assay type: cell-based; conditions: H9C2 cells; for activation of AMPK, dose-response: FIG. 2D; for time course of AMPK activation: 15 min to 8 hr, FIGS. 2C, 2E; for time course of AMPK activation / activation of AMPK signaling pathway (phosphorylation of AMPK targets ACC (S79) and ULK1 (S555)): 2F; for activation of AMPK signaling pathway (phosphorylation of AMPK targets ACC (S79) and ULK1 (S555)): western blot, FIGS. 2A, 2B
Description: (§1) H9C2 rat cardiomyocyte cells were grown in DMEM media (ATCC #30-2002) supplemented with 10% FBS. Stock solutions of MJX series compounds were prepared in DMSO, while the stock solution of α-ketobutyrate was prepared in dH2O. Cells were seeded in the afternoon at 70-80% confluency and the next morning treated with the indicated concentrations of compounds for the indicated times. Cells were then washed with ice-cold PBS and immediately lysed on ice with RIPA buffer. Lysates were clarified at 18,000 g at 4° C., the supernatants transferred to new tubes, mixed with […] of 5×SDS-PAGE loading buffer, and heated for 10 minutes at 70° C. Lysates were then separated by SDS-PAGE using 4-12% Bis-Tris gels (Life Technologies) and transferred to PVDF membranes (Millipore) for western blotting analysis. All antibodies were purchased from Cell Signaling.

Caenorhabditis elegans = assay: Lifespan of N2 wildtype C. elegans on NGM treatment plates containing compound; assay type: in vivo; set-up: mean lifespan: unit not given here; conditions: for % increase (mean lifespan): vs DMSO; for effect on C. elegans lifespan: FIGS. 1A-1C, result in words
Description: The anti-aging effects of MJX001-MJX005 were tested in the nematode Caenorhabditis elegans. Worms of the N2 wildtype strain of C. elegans were age-synchronized by performing either a timed egg lay or an egg preparation (mix <100 gravid worms in 70 μl M9 buffer, 25 μl bleach and 5 μl 10 N NaOH). Once the worms reached day 1 of adulthood, they were picked onto NGM treatment plates containing 1.5% dimethyl sulfoxide (DMSO; Sigma D8418), 49.5 μM 5-fluoro-2′-deoxyuridine (FUDR, Sigma F0503), and either […] (Sigma K401) or one of the MJX series test compounds. All plates were adjusted to pH 6.0 (i.e., the same pH as the control plates) if necessary by the addition of NaOH. Once dry, the plates were seeded with OP50 E. coli as the C. elegans food source. […] Worms were moved to new plates every 4 days. All worms were maintained in a single humidified, temperature-controlled incubator at 20° C. Lifespan curves were generated and statistical analyses performed.

mTORC2 = assay: Western blot of mTORC2 signaling in H9C2 rat cardiomyocytes; assay type: cell-based; conditions: H9C2 cells, FIGS. 2C; for mTORC2 activity (phosphorylation of Akt (S473)): 2F
Description: as §1

mTOR signaling = assay: Western blot of mTOR signaling in H9C2 rat cardiomyocytes; assay type: cell-based; conditions: H9C2 cells; for inhibition of mTOR signaling, dose-response: FIG. 2D; for time course of inhibition of mTOR signaling: 15 min to 8 hr, FIGS. 2C, 2E, 2F
Description: as §1

mTORC1 = assay: Western blot of mTORC1 signaling in H9C2 rat cardiomyocytes; assay type: cell-based; conditions: H9C2 cells, western blot, FIGS. 2A, 2B, 2C, 2F
Description: as §1

C57BL/6 mice [1] = conditions: stated as known; cited from earlier work
C57BL/6 mice [2] = assay: Hair regrowth in shaved C57BL/6 mice, topical application; assay type: in vivo, mouse
Description: The effects of the compounds on mouse models were evaluated. […] Mouse dorsal hair was shaved by trimmer on week 7 and MJX002 was dissolved in Transdermal Gel at 16 mM and applied on the dorsal skin every other day. Mice were monitored for the appearance of skin pigmentation, which signals the initiation of anagen. […] (FIG. 7)

H9C2 Cells = assay: [U-13C6]glucose tracing of metabolites in H9C2 cells (LC-MS); assay type: cell-based, rat; conditions: 24 h, FIG. 4
Description: To evaluate the metabolic pathways in use, H9C2 Cells were cultured with designated compounds and medium containing [U-^13C6]glucose for 24 h. Metabolites were extracted for LC-MS detection.

[3] = after only 15 minutes treatment, FIG. 2C
[4] = 4 mM, FIG. 1B experiment, DMSO control 15.3
[5] = 4 mM, FIG. 1A experiment, DMSO control 11.7
[6] = 4 mM, FIG. 1C experiment, DMSO control 14.8
[7] = 4 mM, FIG. 8 experiment, DMSO control 15.3
[8] = 1 mM, FIG. 1C experiment, DMSO control 14.8
[9] = 2 mM, FIG. 1C experiment, DMSO control 14.8

## C/C=C1\OC(CC)(C(=O)OCC)OC1=O (stereo not drawn) [MJX005]
AMPK signaling pathway
  activation of AMPK compared with α-ketobutyrate: more potent activation of AMPK than α-ketobutyrate
  time course of AMPK activation: greatly diminished by 2 hr and largely absent at 4 hr and 8 hr
  activation of AMPK signaling pathway (phosphorylation of AMPK targets ACC (S79) and ULK1 (S555)): activate the AMPK pathway
AMPK signaling pathway; 0.8 mM or lower
  activation of AMPK, dose-response: no significant effect
AMPK signaling pathway; 1.6 mM
  activation of AMPK, dose-response: modest effect
AMPK signaling pathway; 3.2 mM
  activation of AMPK, dose-response: strong effect
AMPK signaling pathway; [3]
  activation of AMPK: strong activation of AMPK
Caenorhabditis elegans; 2 mM, FIG. 1B experiment, DMSO control 15.3
  mean lifespan: 18.2
Caenorhabditis elegans; 2 mM, FIG. 1B experiment
  % increase (mean lifespan): 19.1%
Caenorhabditis elegans; [4]
  mean lifespan: 19.6
Caenorhabditis elegans; 4 mM, FIG. 1B experiment
  % increase (mean lifespan): 27.7%
Caenorhabditis elegans
  effect on C. elegans lifespan: dose-dependent increases in lifespan
mTORC2; 2E
  time course of inhibition of mTORC2 (decreased phosphorylation of Akt (S473)): strongest after just 15 and 30 minutes treatment, but recovered to normal levels by 2 hr and beyond
mTORC2
  mTORC2 activity (phosphorylation of Akt (S473)): inhibits both mTORC1 and mTORC2 activity
mTOR signaling; 0.8 mM or lower
  inhibition of mTOR signaling, dose-response: no significant effect
mTOR signaling; 1.6 mM
  inhibition of mTOR signaling, dose-response: modest effect
mTOR signaling; 3.2 mM
  inhibition of mTOR signaling, dose-response: strong effect
mTOR signaling
  time course of inhibition of mTOR signaling: greatly diminished by 2 hr and largely absent at 4 hr and 8 hr; also recorded: only inhibited mTOR signaling transiently
mTOR signaling; [3]
  inhibition of mTOR signaling: inhibition of mTOR signaling
mTORC1
  mTORC1 signaling (phosphorylation of mTORC1 targets S6K (T389), 4E-BP1 (S65), ULK1 (S757)): inhibited mTORC1 signaling; also recorded: inhibits both mTORC1 and mTORC2 activity

## α-ketobutyric acid (2-oxobutanoic acid) [aKB, reference compound]
C57BL/6 mice [1]
  hair loss in old C57BL/6 mice: prevents hair loss
  hair regrowth in mice: stimulates hair regrowth
Caenorhabditis elegans; [5]
  mean lifespan: 17.7
Caenorhabditis elegans; 4 mM, FIG. 1A experiment
  % increase (mean lifespan): 51.0%
Caenorhabditis elegans; [4]
  mean lifespan: 20.4
Caenorhabditis elegans; 4 mM, FIG. 1B experiment
  % increase (mean lifespan): 33.3%
Caenorhabditis elegans; [6]
  mean lifespan: 19.7
Caenorhabditis elegans; 4 mM, FIG. 1C experiment
  % increase (mean lifespan): 33.3%
Caenorhabditis elegans; [7]
  mean lifespan: 19.1
Caenorhabditis elegans; 4 mM, FIG. 8 experiment
  % increase (mean lifespan): 24.6%

## C/C=C1\OC(CCC(=O)OCC)(C(=O)OCC)OC1=O (stereo not drawn) [MJX006]
AMPK signaling pathway
  time course of AMPK activation: highest at 15 and 30 minutes, is weaker but still evident at 1 hour, and has largely returned to baseline by 2 hours
  activation of AMPK signaling pathway (phosphorylation of AMPK targets ACC (S79) and ULK1 (S555)): rapidly promote AMPK activity
Caenorhabditis elegans; 1 mM, FIG. 8 experiment, DMSO control 15.3
  mean lifespan: 16.2
Caenorhabditis elegans; 1 mM, FIG. 8 experiment
  % increase (mean lifespan): 6.3%
Caenorhabditis elegans; 2 mM, FIG. 8 experiment, DMSO control 15.3
  mean lifespan: 19.0
Caenorhabditis elegans; 2 mM, FIG. 8 experiment
  % increase (mean lifespan): 24.2%
Caenorhabditis elegans; [7]
  mean lifespan: 17.4
Caenorhabditis elegans; 4 mM, FIG. 8 experiment
  % increase (mean lifespan): 13.9%
Caenorhabditis elegans; all three tested doses (1, 2, 4 mM), FIG. 8, result in words
  N2 C. elegans lifespan: extended significantly
mTORC2
  mTORC2 activity (phosphorylation of Akt (S473)): inhibit mTORC1 and mTORC2 signaling
mTOR signaling
  time course of inhibition of mTOR signaling: exhibited similar kinetics; also recorded: only inhibited mTOR signaling transiently
mTORC1
  mTORC1 signaling (phosphorylation of mTORC1 targets S6K (T389), 4E-BP1 (S65), ULK1 (S757)): inhibit mTORC1 and mTORC2 signaling

## C/C=C(\OC(C)=O)C(=O)OCC [MJX001]
AMPK signaling pathway
  activation of AMPK signaling pathway (phosphorylation of AMPK targets ACC (S79) and ULK1 (S555)): activate the AMPK signaling pathway
Caenorhabditis elegans; [8]
  mean lifespan: 12.9
Caenorhabditis elegans; 1 mM, FIG. 1C experiment
  % increase (mean lifespan): −12.9%
Caenorhabditis elegans; [9]
  mean lifespan: 11.5
Caenorhabditis elegans; 2 mM, FIG. 1C experiment
  % increase (mean lifespan): −22.4%
Caenorhabditis elegans; [6]
  mean lifespan: 11.1
Caenorhabditis elegans; 4 mM, FIG. 1C experiment
  % increase (mean lifespan): −24.8%
Caenorhabditis elegans
  effect on C. elegans lifespan: decreased C. elegans lifespan
mTORC1
  mTORC1 signaling (phosphorylation of mTORC1 targets S6K (T389), 4E-BP1 (S65), ULK1 (S757)): no significant effect

## CCOC(=O)C(CC)(OCC)OC(C)=O (stereo not drawn) [MJX002]
C57BL/6 mice [2]; 6 week old C57BL/6 mice, 16 mM in Transdermal Gel on dorsal skin every other day
  hair regrowth: stimulates hair regrowth
C57BL/6 mice [2]; C57BL/6 mice, 16 mM topical every other day, after 40 days, FIG. 7
  skin pigmentation and hair growth: accelerated pigmentation and hair growth
AMPK signaling pathway
  activation of AMPK signaling pathway (phosphorylation of AMPK targets ACC (S79) and ULK1 (S555)): activate the AMPK signaling pathway
Caenorhabditis elegans; 100 μM, FIG. 1A experiment, DMSO control 11.7
  mean lifespan: 11.9
Caenorhabditis elegans; 100 μM, FIG. 1A experiment
  % increase (mean lifespan): 1.9%
Caenorhabditis elegans; 300 μM, FIG. 1A experiment, DMSO control 11.7
  mean lifespan: 13.2
Caenorhabditis elegans; 300 μM, FIG. 1A experiment
  % increase (mean lifespan): 13.0%
Caenorhabditis elegans; 1 mM, FIG. 1A experiment, DMSO control 11.7
  mean lifespan: 12.2
Caenorhabditis elegans; 1 mM, FIG. 1A experiment
  % increase (mean lifespan): 4.2%
Caenorhabditis elegans; [5]
  mean lifespan: 16.4
Caenorhabditis elegans; 4 mM, FIG. 1A experiment
  % increase (mean lifespan): 40.0%
Caenorhabditis elegans
  effect on C. elegans lifespan: dose-dependent increases in lifespan
H9C2 Cells
  M2 citrate using [U-13C6]glucose as a tracer: decreased M2 citrate
mTORC1
  mTORC1 signaling (phosphorylation of mTORC1 targets S6K (T389), 4E-BP1 (S65), ULK1 (S757)): no significant effect

## C/C=C1\OC(C)OC1=O (stereo not drawn) [MJX003]
AMPK signaling pathway; FIG. 2A
  phosphorylation of T172 in AMPK: Increased phosphorylation
AMPK signaling pathway
  activation of AMPK signaling pathway (phosphorylation of AMPK targets ACC (S79) and ULK1 (S555)): activate the AMPK signaling pathway
Caenorhabditis elegans; [8]
  mean lifespan: 14.8
Caenorhabditis elegans; 1 mM, FIG. 1C experiment
  % increase (mean lifespan): −0.2%
Caenorhabditis elegans; [9]
  mean lifespan: 12.5
Caenorhabditis elegans; 2 mM, FIG. 1C experiment
  % increase (mean lifespan): −15.3%
Caenorhabditis elegans; [6]
  mean lifespan: 12.9
Caenorhabditis elegans; 4 mM, FIG. 1C experiment
  % increase (mean lifespan): −12.7%
Caenorhabditis elegans
  effect on C. elegans lifespan: decreased C. elegans lifespan
mTORC1
  mTORC1 signaling (phosphorylation of mTORC1 targets S6K (T389), 4E-BP1 (S65), ULK1 (S757)): no significant effect
